Reference: patent publication US20030125234A1, “Alteration of protein stability” (priority 2001, published 2003)
Entries after “also recorded” stand apart in the source; their conditions may differ. Residues, ends and D or L forms follow the SMILES beside them.

Legend:
Assay type in all cases: biochemical
[1] = target: T1, porcine somatotropin (pST) (Sus scrofa, UniProt P01248); assay: Porcine somatotropin aggregation (turbidity at 360 nm) with PEG 8000; conditions: pST 1.27 mg/mL, 60° C., standard deviation in parenthesis
T1 construct: purchased Pfizer, Inc., Groton, Conn., USA (provided, not bought)
T1 sequence (P01248 27-216): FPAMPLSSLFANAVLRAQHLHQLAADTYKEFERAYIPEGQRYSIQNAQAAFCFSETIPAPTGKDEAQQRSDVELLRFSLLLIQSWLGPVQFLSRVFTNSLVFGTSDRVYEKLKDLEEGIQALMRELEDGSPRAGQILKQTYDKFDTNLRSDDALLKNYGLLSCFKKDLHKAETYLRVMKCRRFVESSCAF
Procedure: (§1) Bovine insulin [Sigma, St. Louis, Mo., USA] was dissolved in phosphate saline (PBS) (50 mM sodium biphosphate, 100 mM sodium chloride), pH 7.0, bovine alpha-lactalbumin [Sigma] in 50 mM sodium phosphate, 100 mM sodium chloride and 2 mM EDTA, pH 6.2, chicken egg white lysozyme [Sigma] in 100 mM Tris, 1 mM EDTA, pH 8.2, human acidic fibroblast growth factor (FGF-1) in 6.2 mM sodium biphosphate, 120 mM sodium chloride, pH 7.2, porcine somatotropin (pST) [provided by Pfizer, Inc., Groton, Conn., USA] in 10 mM phosphate, pH 6. 1, human apolactoferrin (HLF) [Sigma] in 20 mM HEPES, 154 mM NaCl, pH 7.4, porcine heart citrate synthase (CS) in 40 mM HEPES, 50 mM KCl, 10 mM (NH4)2SO4 mM potassium acetate, pH 7.8, and yeast alcohol dehydrogenase (ADH) [Sigma] in pH 7.0 PBS. Selection of buffer solutions was based on an extensive series of preliminary studies to obtain appropriate insolubilization kinetics as described below.
(§2) Copper O-phenanthroline (1,10-phenanthroline) was prepared by mixing copper sulfate hexahydrate [Fisher] and o-phenanthroline [Sigma] in a 1:2 ratio. 1 M Dithiothreitol (DTT) was prepared at pH 7.0 PBS. Polyethylene glycol (M.W. 8000, Union Carbide, Danbury, Conn., USA) (PEG) was prepared at 20 mg/mL in 10 mM phosphate, pH 6.1.
(§3) The following compounds were obtained from Sigma and used without further purification: oxalic acid, sodium malonate, succinic acid, glutaric acid, adipic acid, pimelic acid, suberic acid, azelaic acid, guanidine hydrochloride, ammonium formate, beta-alanine, 4-aminobutyric acid, 5-aminovaleric acid, 6-aminocaproic acid, 7-aminoheptanoic acid, hydrazine, ethylenediamine, 1,3-diaminopropane, 1,4-diaminobutane, 1,5-diaminopentane, 1,6-diaminohexane, 1,7-diaminoheptane, Glu-Glu, Glu-Lys, Lys-Lys, diglycine, triglycine, tetraglycine, pentaglycine, and hexaglycine. […] Triglycine and tetraglycine were dissolved in pH 8.6 PBS, while pentaglycine and hexaglycine were dissolved in pH 10.6 PBS.
(§4) Each was either dissolved in pH 7.0 PBS, or pH 6.1 10 mM phosphate, and adjusted to the same pH.
(§5) Protein aggregation was monitored for 1 hour at 360 nm using an HP8453 UV-visible spectrophotometer system [Hewlett Packard, Germany]. […] Insulin (0.25 mg/mL (4.39E-5 M)) aggregation was monitored at 25° C. after addition of potential inhibitors and 20 μL of 1 M DTT (1.27E-4 M). Alpha-lactabumin (0.4 mg/mL (2.82E-5 M)) aggregation was monitored at 37° C. in the presence of 20 μL of 1 M DTT (1.27E-4 M). Lysozyme (0.4 mg/mL (2.86E-5 M)) aggregation was monitored at 25° C. in the presence of 20 μL of 1 M DTT (1.27E-4 M). FGF-1 (50 μg/mL (3.12E-6 M)) aggregation was monitored at 50° C. Porcine somatotropin (1.27 mg/mL (5.76E-5 M)) aggregation was monitored at 60° C. in the presence of PEG 8000 (20 mg/mL) which was included to enhance the protein association process through a simple exclusion volume effect. HLF (0.4 mg/mL (5.23E-6 M)) aggregation was monitored at 43° C. in the presence of 1.27E-4 M DTT. Citrate synthase (96 μg/mL (9.80E-7 M)) aggregation was monitored at45° C. ADH (1 mg/mL (7.14E-6 M)) was monitored at 37° C. following the addition of 7.76E-5 M Cu(OP)2. Aggregation was compared to protein in the absence of the particular dipolar compound. After stirring, experiments were initiated by the addition of proteins followed by stressing reagents to 1 cm pathlength cuvettes employing a seven-position thermostatted sample holder that was cycled at 30-second intervals. Alternatively, a microtiter plate reader was employed under the same conditions in a 96 well format.
(§6) All optical density (OD)360nm versus time results were exported into Excel [Microsoft] for data analysis.

[2] = target: T2, yeast alcohol dehydrogenase (ADH) (Saccharomyces cerevisiae, UniProt P00330); assay: ADH oxidation-induced aggregation (turbidity at 360 nm), Cu(OP)2; conditions: for inhibition index: ADH 1 mg/mL, 37° C., Cu(OP)2; for inhibition of ADH aggregation, in words: FIG. 1
T2 construct: purchased Sigma
T2 sequence (P00330 2-348 limits assumed): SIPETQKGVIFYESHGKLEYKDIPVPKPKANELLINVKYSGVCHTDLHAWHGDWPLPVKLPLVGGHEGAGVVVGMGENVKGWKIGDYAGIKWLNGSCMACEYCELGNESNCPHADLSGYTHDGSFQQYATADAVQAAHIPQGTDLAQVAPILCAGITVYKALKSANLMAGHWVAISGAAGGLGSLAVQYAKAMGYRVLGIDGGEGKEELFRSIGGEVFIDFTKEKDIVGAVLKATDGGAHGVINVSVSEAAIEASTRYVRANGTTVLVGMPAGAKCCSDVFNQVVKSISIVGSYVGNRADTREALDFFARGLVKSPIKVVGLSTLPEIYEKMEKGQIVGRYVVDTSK
Procedure: as §1, §2, §3, §4, §5, §6

[3] = target: T3, bovine alpha-lactalbumin (Bos taurus, UniProt P00711); assay: Alpha-lactalbumin aggregation (turbidity at 360 nm) induced by DTT; conditions: for inhibition index: α Lactalbumin 0.4 mg/mL, 37° C., DTT, compound 1,000×, standard deviation in parenthesis
T3 construct: purchased Sigma
T3 sequence (P00711 20-142): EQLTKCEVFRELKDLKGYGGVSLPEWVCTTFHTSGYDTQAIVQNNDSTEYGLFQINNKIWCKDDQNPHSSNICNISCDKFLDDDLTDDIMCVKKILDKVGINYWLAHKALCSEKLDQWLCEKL
Procedure: as §1, §2, §3, §4, §5, §6

[4] = target: T4, chicken egg white lysozyme (Gallus gallus, UniProt P00698); assay: Lysozyme aggregation (turbidity at 360 nm) induced by DTT; conditions: for inhibition index: Lysozyme 0.4 mg/mL, 25° C., DTT, compound 1,000×, standard deviation in parenthesis
T4 construct: chicken egg white lysozyme [Sigma]; purchased Sigma; host or cells: egg white
T4 sequence (P00698 19-147): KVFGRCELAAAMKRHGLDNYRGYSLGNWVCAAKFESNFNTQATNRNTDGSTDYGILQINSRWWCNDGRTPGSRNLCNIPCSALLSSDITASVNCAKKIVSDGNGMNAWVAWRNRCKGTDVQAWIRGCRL
Procedure: as §1, §2, §3, §4, §5, §6

[5] = compound 10,000X molar excess, Infinite = complete inhibition of aggregation over one hour
[6] = compound 1,000X, standard deviation in parenthesis

inhibition index ([1]; compound 100X)	inhibition index ([1]; compound 2,000X)	inhibition index [2, 5]	inhibition index [3]	inhibition index [4]	inhibition of α-lactalbumin aggregation, in words [3]	inhibition index [2, 6]	Molecule	inhibition of ADH aggregation, in words [2]	inhibition of lysozyme aggregation, in words [4]
0.6 (0.1)	1.4 (0.4)	0.8 (0.1)	1.0 (0.2)	1.6 (0.2)	–	–	NCCCCN [1,4-diaminobutane]	–	–
0.8 (0.3)	1.7 (0.4)	0.9 (0.0)	0.9 (0.0)	1.3 (0.3)	–	–	NCCCCCN [1,5-diaminopentane]	–	–
0.7 (0.0)	1.6( 0.7)	0.6 (0.1)	1.8 (0.7)	1.0 (0.3)	–	–	NCCCCCCCN [1,7-diaminoheptane]	–	–
0.3 (0.0)	1.1 (0.2)	2.0 (0.1)	2.0 (0.8)	1.4 (0.4)	–	–	NCCCC(=O)O [4-aminobuytrate, 4-aminobutyric acid]	–	–
0.4 (0.0)	0.7 (0.1)	2.7 (0.9)	2.1 (0.8)	1.5 (0.4)	–	–	NCCCCC(=O)O [5-aminovalerate, 5-aminovaleric acid]	–	–
0.5 (0.1)	1.2 (0.2)	3.2 (0.3)	2.3 (0.6)	0.8 (0.2)	–	–	NCCCCCC(=O)O [6-aminocaproate, 6-aminocaproic acid]	–	–
0.4 (0.0)	1.6 (0.2)	4.9 (0.5)	3.9 (2.1)	1.3 (0.2)	Potent inhibitors	–	NCCCCCCC(=O)O [7-aminoheptanoate, 7-aminoheptanoic acid]	–	–
0.9 (0.1)	3.9 (0.7)	4.9 (0.9)	1.2 (0.3)	1.4 (0.8)	–	–	O=C(O)CCCCC(=O)O [adipate, adipic acid]	–	–
0.4 (0.1)	0.8 (0.1)	2.2 (0.3)	2.1 (0.4)	1.1 (0.3)	–	–	NCCC(=O)O [beta-alanine]	–	–
0.7 (0.0)	1.3 (0.1)	202.6 (69.7)	0.7 (0.4)	70.2 (6.8)	–	–	NCCN [ethylenediamine]	effective inhibitors	effective inhibitors; also recorded: strongly inhibited
0.4 (0.1)	1.2 (0.2)	54.3 (4.5)	1.4 (0.3)	1.0 (0.2)	–	–	NCC(=O)O [glycine]	Potent inhibition; also recorded: effective inhibitors	–
0.8 (0.1)	1.5 (0.3)	–	1.3 (0.2)	1.6 (1.0)	–	–	O=C(O)C(=O)O [oxalate, oxalic acid]	most potent inhibitor; also recorded: effective inhibitors	–
0.8 (0.1)	1.5 (0.4)	9.0 (1.3)	1.3 (0.3)	2.0 (0.7)	–	–	O=C(O)CCCCCC(=O)O [pimelate, pimelic acid]	–	–
0.7 (0.0)	1.7 (0.3)	15.5 (1.4)	2.0 (0.7)	1.4 (0.2)	–	–	O=C(O)CCCCCCC(=O)O [suberate, suberic acid]	–	–
0.9 (0.1)	2.1 (0.3)	2.7 (0.7)	1.1 (0.3)	1.0 (0.3)	–	–	O=C(O)CCC(=O)O [succinate, succinic acid]	–	–
0.7 (0.0)	2.5 (0.3)	187.6 (46.1)	0.9 (0.1)	1.6 (0.3)	–	5.0 (1.4)	NCC(=O)NCC(=O)NCC(=O)O [triglycine] (H-Gly-Gly-Gly-OH)	–	–
0.6 (0.1)	–	5.3 (1.2)	1.0 (0.1)	1.2 (0.7)	–	1.4 (0.2)	Glu-Glu	–	–
0.9 (0.1)	–	2.7	1.0 (0.1)	1.3 (0.1)	–	1.4 (0.2)	Lys-Lys	–	–

Molecule	inhibition index ([1]; compound 100X)	inhibition index ([1]; compound 2,000X)	inhibition index [2, 5]	inhibition index [3]	inhibition index [4]	inhibition of α-lactalbumin aggregation, in words [3]	inhibition index [2, 6]	inhibition of ADH aggregation, in words [2]	inhibition of lysozyme aggregation, in words [4]
NCCCN [1,3-diaminopropane]	0.6 (0.0)	1.7 (0.2)	0.7 (0.1)	0.9 (0.3)	2.7 (0.4)	–	–	–	–
NCCCCCCN [1,6-diaminohexane]	0.6 (0.1)	1.9 (0.2)	0.8 (0.0)	1.3 (0.4)	1.0 (0.1)	–	–	–	–
O=C(O)CCCC(=O)O [glutarate, glutaric acid]	0.9 (0.1)	3.1 (0.7)	1.8 (0.4)	1.1 (0.2)	1.2 (0.3)	–	–	–	–
O=C([O-])CC(=O)[O-].[Na+].[Na+] [malonate, sodium malonate]	0.9 (0.1)	4.9 (0.5)	18.9 (6.6)	1.8 (0.1)	1.5 (0.4)	–	–	–	–
